Results as given in patent US10961248B2, “Pesticidally active heterocyclic derivatives with sulfur containing substituents” (SYNGENTA PARTICIPATIONS AG, priority 2016, dated 2021).

What was measured:
[1] = tested on: Plutella xylostella (Diamond Back Moth); experiment: Example B1: activity against Plutella xylostella, artificial diet in 24-well plates; format: in vivo; conditions: 120 h, application rate 200 ppm, L2 larvae on artificial diet, 5 days after infestation, read-out: effect in at least one of the two categories (mortality or growth inhibition)
Experimental: (§1) 24-well microtiter plates with artificial diet were treated with aqueous test solutions prepared from 10'000 ppm DMSO stock solutions by pipetting. After drying, the plates were infested with L2 larvae (10 to 15 per well). The samples were assessed for mortality and growth inhibition in comparison to untreated samples 5 days after infestation.

[2] = tested on: Myzus persicae (Green Peach Aphid); experiment: Example B2: activity against Myzus persicae, sprayed sunflower leaf discs; format: in vivo; conditions: foliar, 144 h, application rate 200 ppm, aphid population of mixed ages, 6 days after infestation
Experimental: (§2) Sunflower leaf discs were placed on agar in a 24-well microtiter plate and sprayed with aqueous test solutions prepared from 10'000 ppm DMSO stock solutions. After drying, the leaf discs were infested with an aphid population of mixed ages. The samples were assessed for mortality 6 days after infestation.

[3] = tested on: Myzus persicae (Green Peach Aphid); experiment: Example B3: activity against Myzus persicae, roots of pea seedlings in test solution; format: in vivo; conditions: 144 h, test rate 24 ppm, roots of infested pea seedlings in test solution, 6 days
Experimental: Roots of pea seedlings infested with an aphid population of mixed ages were placed directly in the aqueous test solutions prepared from 10'000 DMSO stock solutions. The samples were assessed for mortality 6 days after placing seedlings in test solutions.

[4] = tested on: Frankliniella occidentalis (Western Flower Thrips); experiment: Example B4: activity against Frankliniella occidentalis, sprayed sunflower leaf discs; format: in vivo; conditions: foliar, 168 h, application rate 200 ppm, population of mixed ages, 7 days after infestation
Experimental: as §2, with “in” for “in a”, “plates” for “plate”, “10'000” for “10'000 ppm”, “drying” for “drying,”, “a Frankliniella” for “an aphid”, “7” for “6”

[5] = tested on: Bemisia tabaci (Cotton White Fly); experiment: Example B5: activity against Bemisia tabaci, sprayed cotton leaf discs; format: in vivo; conditions: foliar, 144 h, application rate 200 ppm, adult white flies, 6 days after incubation
Experimental: Cotton leaf discs were placed on agar in 24-well microtiter plates and sprayed with aqueous test solutions prepared from 10'000 ppm DMSO stock solutions. After drying the leaf discs were infested with adult white flies. The samples were checked for mortality 6 days after incubation.

[6] = tested on: Euschistus heros (Neotropical Brown Stink Bug); experiment: Example B6: activity against Euschistus heros, sprayed soybean leaf; format: in vivo; conditions: 120 h, application rate 200 ppm, N-2 nymphs, 5 days after infestation, read-out: effect in at least one of the two categories (mortality or growth inhibition)
Experimental: Soybean leaf on agar in 24-well microtiter plates were sprayed with aqueous test solutions prepared from 10'000 ppm DMSO stock solutions. After drying the leaf were infested with N-2 nymphs. The samples were assessed for mortality and growth inhibition in comparison to untreated samples 5 days after infestation.

[7] = tested on: Diabrotica Balteata (Corn Root Worm); experiment: Example B7: activity against Diabrotica balteata, sprayed maize sprouts; format: in vivo; conditions: 96 h, application rate 200 ppm, L2 larvae, 4 days after infestation, read-out: effect in at least one of the two categories (mortality or growth inhibition)
Experimental: as §1, with “Maize sprouts placed onto an agar layer in 24-well” for “24-well”, “plates” for “plates with artificial diet”, “spraying.” for “pipetting.”, “(6” for “(10”, “10” for “15”, “4” for “5”

[8] = tested on: Spodoptera littoralis (Egyptian Cotton Leaf Worm); experiment: Example B7: activity against Spodoptera littoralis, sprayed cotton leaf discs; format: in vivo; conditions: foliar, 72 h, application rate 200 ppm, L1 larvae, 3 days after infestation
Experimental: Cotton leaf discs were placed onto agar in 24-well microtiter plates and sprayed with aqueous test solutions prepared from 10'000 ppm DMSO stock solutions. After drying the leaf discs were infested with five L1 larvae. The samples were assessed for mortality, anti-feeding effect, and growth inhibition in comparison to untreated samples 3 days after infestation. Control of Spodoptera littoralis by a test sample is given when at least one of the categories mortality, anti-feedant effect, and growth inhibition is higher than the untreated sample.

[9] = tested on: Tetranychus urticae (Two-Spotted Spider Mite); experiment: Example B7: activity against Tetranychus urticae, sprayed bean leaf discs; format: in vivo; conditions: foliar, 192 h, application rate 200 ppm, mixed population (mobile stages), 8 days after infestation
Experimental: Bean leaf discs on agar in 24-well microtiter plates were sprayed with aqueous test solutions prepared from 10'000 ppm DMSO stock solutions. After drying the leaf discs were infested with a mite population of mixed ages. The samples were assessed for mortality on mixed population (mobile stages) 8 days after infestation.

[10] = tested on: Thrips tabaci (Onion Thrips); experiment: Example B7: activity against Thrips tabaci, sprayed sunflower leaf discs; format: in vivo; conditions: foliar, 144 h, application rate 200 ppm, population of mixed ages, 6 days after infestation
Experimental: as §2, with “in” for “in a”, “plates” for “plate”, “drying” for “drying,”, “a Thrips” for “an aphid”

[11] = tested on: Spodoptera littoralis (Egyptian Cotton Leaf Worm); experiment: Example B7: activity against Spodoptera littoralis, compound in agar taken up by lettuce roots; format: in vivo; conditions: 144 h, test rate 12.5 ppm, systemic via lettuce roots, Spodoptera eggs, 6 days after infestation, read-out: effect in at least one of the three categories (mortality, anti-feeding, or growth inhibition)
From the text: Test compounds were applied by pipette from 10'000 ppm DMSO stock solutions into 24-well plates and mixed with agar. Lettuce seeds were placed onto the agar and the multi well plate was closed by another plate which contained also agar. After 7 days the compound was absorbed by the roots and the lettuce grew into the lid plate. The lettuce leaves were then cut off into the lid plate. Spodoptera eggs were pipetted through a plastic stencil onto a humid gel blotting paper and the lid plate was closed with it. The samples were assessed for mortality, anti-feedant effect and growth inhibition in comparison to untreated samples 6 days after infestation.

CCS(=O)(=O)c1cc(N=S(C)(C)=O)cnc1-c1nc2cc(C(F)(F)F)ncc2n1C [P2, [5-ethylsulfonyl-6-[3-methyl-6-(trifluoromethyl)imidazo[4,5-c]pyridin-2-yl]-3-pyridyl]imino-dimethyl-oxo-λ^6-sulfane]
≥ 80%: percent effect (mortality or growth inhibition) at 200 ppm [1] | mortality at 200 ppm [2] | mortality at 24 ppm [3] | mortality at 200 ppm [4] | mortality at 200 ppm [5] | percent effect (mortality or growth inhibition) at 200 ppm [6] | percent effect (mortality or growth inhibition) at 200 ppm [7] | percent control (mortality, anti-feedant effect or growth inhibition) at 200 ppm [8] | mortality at 200 ppm [9] | mortality at 200 ppm [10]

CCS(=O)(=O)c1cc(N=S(C)(=O)C2CC2)cnc1-c1nc2cc(C(F)(F)F)ncc2n1C (stereo not drawn) [P3, cyclopropyl-[[5-ethylsulfonyl-6-[3-methyl-6-(trifluoromethyl)imidazo[4,5-c]pyridin-2-yl]-3-pyridyl]imino]-methyl-oxo-λ^6-sulfane]
≥ 80%: percent effect (mortality or growth inhibition) at 200 ppm [1] | mortality at 200 ppm [2] | mortality at 200 ppm [4] | mortality at 200 ppm [5] | percent effect (mortality or growth inhibition) at 200 ppm [6] | percent effect (mortality or growth inhibition) at 200 ppm [7] | percent control (mortality, anti-feedant effect or growth inhibition) at 200 ppm [8] | percent effect (mortality, anti-feeding or growth inhibition) at 12.5 ppm [11] | mortality at 200 ppm [9]

CCS(=O)(=O)c1cc(N=S(=O)(CC)CC)cnc1-c1nc2cc(C(F)(F)F)ncc2n1C [P4, diethyl-[[5-ethylsulfonyl-6-[3-methyl-6-(trifluoromethyl)imidazo[4,5-c]pyridin-2-yl]-3-pyridyl]imino]-oxo-λ^6-sulfane]
≥ 80%: percent effect (mortality or growth inhibition) at 200 ppm [1] | mortality at 200 ppm [2] | mortality at 200 ppm [5] | percent effect (mortality or growth inhibition) at 200 ppm [6] | percent effect (mortality or growth inhibition) at 200 ppm [7] | percent control (mortality, anti-feedant effect or growth inhibition) at 200 ppm [8] | mortality at 200 ppm [9]

CCS(=O)(=O)c1cc(N=S(C)(=O)C2CC2)cnc1-c1nc2cc(C(F)(F)F)nnc2n1C (stereo not drawn) [P7, cyclopropyl-[[5-ethylsulfonyl-6-[7-methyl-3-(trifluoromethyl)imidazo[4,5-c]pyridazin-6-yl]-3-pyridyl]imino]-methyl-oxo-λ^6-sulfane]
≥ 80%: percent effect (mortality or growth inhibition) at 200 ppm [1] | mortality at 200 ppm [2] | mortality at 24 ppm [3] | mortality at 200 ppm [4] | mortality at 200 ppm [5] | percent effect (mortality or growth inhibition) at 200 ppm [6] | percent effect (mortality or growth inhibition) at 200 ppm [7] | percent control (mortality, anti-feedant effect or growth inhibition) at 200 ppm [8] | percent effect (mortality, anti-feeding or growth inhibition) at 12.5 ppm [11] | mortality at 200 ppm [9]

CCS(=O)(=O)c1cc(N=S(C)(C)=O)cnc1-c1nc2cc(C(F)(F)F)nnc2n1C [P9, [5-ethylsulfonyl-6-[7-methyl-3-(trifluoromethyl)imidazo[4,5-c]pyridazin-6-yl]-3-pyridyl]imidno-dimethyl-oxo-λ^6-sulfane]
≥ 80%: percent effect (mortality or growth inhibition) at 200 ppm [1] | mortality at 200 ppm [2] | mortality at 24 ppm [3] | mortality at 200 ppm [4] | mortality at 200 ppm [5] | percent effect (mortality or growth inhibition) at 200 ppm [6] | percent effect (mortality or growth inhibition) at 200 ppm [7] | percent control (mortality, anti-feedant effect or growth inhibition) at 200 ppm [8] | mortality at 200 ppm [10]

CCS(=O)(=O)c1cc(N=S(C)(=O)c2ccc(C)cc2)cnc1-c1cn2cnc(C(F)(F)F)cc2n1 (stereo not drawn) [P10, [5-ethylsulfonyl-6-[7-(trifluoromethyl)imidazo[1,2-c]pyrimidin-2-yl]-3-pyridyl]imino-methyl-oxo-(p-tolyl)-λ^6-sulfane]
155 to 157 °C: melting point

CCS(=O)(=O)c1cc(N=S2(=O)CCC2)cnc1-c1nc2cc(C(F)(F)F)ncc2n1C [P11, 1-[[5-ethylsulfonyl-6-[3-methyl-6-(trifluoromethyl)imidazo[4,5-c]pyridin-2-yl]-3-pyridyl]imino]thietane 1-oxide]
≥ 80%: percent effect (mortality or growth inhibition) at 200 ppm [1] | mortality at 200 ppm [2] | mortality at 24 ppm [3] | mortality at 200 ppm [4] | mortality at 200 ppm [5] | percent effect (mortality or growth inhibition) at 200 ppm [6] | percent effect (mortality or growth inhibition) at 200 ppm [7] | percent control (mortality, anti-feedant effect or growth inhibition) at 200 ppm [8] | mortality at 200 ppm [9]

CCS(=O)(=O)c1cc(N=S2(=O)CCOCC2)cnc1-c1nc2cc(C(F)(F)F)nnc2n1C [P23, 4-[[5-ethylsulfonyl-6-[7-methyl-3-(trifluoromethyl)imidao[4,5-c]pyridazin-6-yl]-3-pyridyl]imino]-1,4-oxathiane 4-oxide]
≥ 80%: percent effect (mortality or growth inhibition) at 200 ppm [1] | mortality at 200 ppm [2] | mortality at 24 ppm [3] | mortality at 200 ppm [5] | percent effect (mortality or growth inhibition) at 200 ppm [6] | mortality at 200 ppm [9]

CCS(=O)(=O)c1cc(N=S2(=O)CCOCC2)ccc1-c1nc2cc(C(F)(F)F)nnc2n1C [P25, 4-[3-ethylsulfonyl-4-[7-methyl-3-(trifluoromethyl)imidazo[4,5-c]pyridazin-6-yl]phenyl]imino-1,4-oxathiane 4-oxide]
253 to 255 °C: melting point

CCS(=O)(=O)c1cc(N=S2CCOCC2)cnc1-c1nc2cc(C(F)(F)F)ncc2n1C [P26, 2-[3-ethylsulfonyl-5-(1,4-oxathian-4-ylideneamino)-2-pyridyl]-3-methyl-6-(trifluoromethyl)imidazo[4,5-c]pyridine]
214 °C (dec.): melting point
